Experimental data as given in US20090054471A1, “PYRIDOPYRAZOLOPYRIMIDINE COMPOUNDS AND THEIR USES AS ANTI-CANCER AND ANTI-DIABETE DRUGS” (Smithkline Beecham Corporation, priority 2005, published 2009).

Columns and labels:
Type in all cases: biochemical
EGFR = target: T1, EGFR (Homo sapiens, UniProt P00533); test: EGFR protein tyrosine kinase substrate phosphorylation assay (SPA); conditions: 10 μM ATP, 11-point dose-response 0.0001 to 10 μM
T1 construct: made in house; host or cells: baculovirus expression system (insect cells)
Procedure: (§1) Compounds of the present invention were tested for EGFR or ErbB-2 protein tyrosine kinase inhibitory activity in substrate phosphorylation assays using enzymes purified from a baculovirus expression system.
(§2) The method measures the ability of the isolated enzyme to catalyse the transfer of the γ-phosphate from ATP onto tyrosine residues in a biotinylated synthetic peptide (biotin-Ahx-[…]-amide). Reactions were performed in 96 or 384 well polystyrene plates in a final volume of 20 or 45 μl. […] ATP per reaction, 2 μM peptide substrate, and 1 mM dithiothreitol. Reactions were initiated by adding 1 pmol (20 nM) per reaction of the indicated enzyme.
(§3) Data Calculations—Peptide substrate phosphorylation reactions were performed as described above. The example compound indicated was serially diluted 1 to 3 and added to the reactions to produce an 11-point dose-response curve ranging from 0.0001 to 10 μM.

Human GSK3b = target: T2, Human GSK3b (Homo sapiens, UniProt P49841); test: GSK3b kinase scintillation proximity assay; conditions: 2.5 uM ATP, 11-point dose-response 0.0001 to 10 μM; read-out: GSK3
T2 construct: 6-His (N); made in house; host or cells: E. coli
Procedure: Human GSK3b was expressed in E. coli with a 6-His tag at the N-terminus. The protein was purified using metal-chelate affinity chromatography. The incorporation of radioactive phosphate into a biotinylated synthetic peptide, Biotin-Ahx-[…](PO3)YR-amide was detected using a scintillation proximity assay (SPA) method as described above. Assay conditions were as follows: 100 mM HEPES, pH 7.2, 10 mM MgCl2, 0.3 mg/mL heparin sulfate, 0.1 mg/mL BSA, 1 mM DTT, 2.5 uM ATP, 0.6 uCi/rxn ^33P-ATP, 1.2 ug/mL GSK-3b protein. The plates are incubated at room temperature for 19 minutes prior to the addition of SPA stop solution.
as §3

ErbB-2 = target: T3, ErbB-2 (Homo sapiens, UniProt P04626); test: ErbB-2 protein tyrosine kinase substrate phosphorylation assay (SPA); conditions: 10 μM ATP, 11-point dose-response 0.0001 to 10 μM; read-out: ErbB2
T3 construct: made in house; host or cells: baculovirus expression system (insect cells)
Procedure: as §1, §2, §3

[1] = target: T4, vascular endothelial growth factor receptor 2 (VEGFR2) (Homo sapiens, UniProt P35968); test: VEGFR2 kinase assay (homogeneous time-resolved fluorescence); conditions: 75 μM ATP, 11-point dose-response 0.0001 to 10 μM; read-out: VEGF-R
T4 construct: The catalytic domains of vascular endothelial growth factor receptor 2 (VEGFR2) was expressed and purified; made in house
Procedure: The catalytic domains of vascular endothelial growth factor receptor 2 (VEGFR2) was expressed and purified using methods similar to those described for ErbB-2 and EGFR. Kinase assays were performed as described above with the following modifications: VEGFR2 assays contained 10 nM enzyme, 100 mM HEPES, pH 7.5, 0.1 mg/ml bovine serum albumin, 0.1 mM dithiothreitol, 360 nM peptide A, 75 μM ATP, and 5 mM MgCl2. The reaction was allowed to proceed for 40 min. Product was detected using a homogeneous time-resolved fluorescence procedure (Park, Y.-W., Cummings, R. T., Wu, L., Zheng, S., Cameron, P. M., Woods, A., Zaller, D. M., Marcy, A. I., and Hermes, J. D. (1999) Anal. Biochem. 269, 94-104). Briefly, the reactions were quenched by adding 100 μl of 100 mM HEPES, pH 7.5, 100 mM EDTA, 45 nM streptavidin-linked allophycocyanin (Molecular Probes, Eugene, Oreg.), and 3 nM europium-conjugated anti-phosphotyrosine antibody (Wallac, Turku, Finland). The product was detected using a Victor plate reader (Wallac, Turku, Finland) with a time delay at 665 nm.
as §3

T2 sequence (P49841 whole entry): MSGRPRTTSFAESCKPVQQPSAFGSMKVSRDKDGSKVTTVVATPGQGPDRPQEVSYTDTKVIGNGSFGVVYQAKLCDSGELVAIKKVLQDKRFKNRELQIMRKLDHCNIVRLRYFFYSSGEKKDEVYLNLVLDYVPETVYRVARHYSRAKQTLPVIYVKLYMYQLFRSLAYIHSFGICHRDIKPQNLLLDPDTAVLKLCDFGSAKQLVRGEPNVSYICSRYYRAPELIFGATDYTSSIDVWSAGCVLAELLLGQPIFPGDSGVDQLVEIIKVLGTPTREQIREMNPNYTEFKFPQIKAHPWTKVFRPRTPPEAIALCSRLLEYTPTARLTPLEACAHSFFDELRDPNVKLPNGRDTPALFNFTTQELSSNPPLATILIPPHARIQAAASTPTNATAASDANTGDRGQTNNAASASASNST
T1 sequence (P00533 669-1210 limits assumed): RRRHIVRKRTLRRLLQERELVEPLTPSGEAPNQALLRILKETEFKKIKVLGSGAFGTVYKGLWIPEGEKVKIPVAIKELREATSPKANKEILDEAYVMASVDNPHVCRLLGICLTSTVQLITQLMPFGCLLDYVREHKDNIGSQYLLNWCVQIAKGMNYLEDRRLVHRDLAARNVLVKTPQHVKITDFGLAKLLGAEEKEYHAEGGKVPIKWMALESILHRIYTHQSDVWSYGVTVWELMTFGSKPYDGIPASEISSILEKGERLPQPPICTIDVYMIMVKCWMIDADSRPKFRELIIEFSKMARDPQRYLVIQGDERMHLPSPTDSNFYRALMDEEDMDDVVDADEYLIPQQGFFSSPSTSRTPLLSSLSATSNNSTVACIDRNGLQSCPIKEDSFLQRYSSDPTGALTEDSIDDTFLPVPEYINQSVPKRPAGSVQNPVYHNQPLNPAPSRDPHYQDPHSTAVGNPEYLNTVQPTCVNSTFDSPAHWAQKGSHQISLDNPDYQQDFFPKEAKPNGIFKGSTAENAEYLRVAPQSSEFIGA
T3 sequence (P04626 676-1255 limits assumed): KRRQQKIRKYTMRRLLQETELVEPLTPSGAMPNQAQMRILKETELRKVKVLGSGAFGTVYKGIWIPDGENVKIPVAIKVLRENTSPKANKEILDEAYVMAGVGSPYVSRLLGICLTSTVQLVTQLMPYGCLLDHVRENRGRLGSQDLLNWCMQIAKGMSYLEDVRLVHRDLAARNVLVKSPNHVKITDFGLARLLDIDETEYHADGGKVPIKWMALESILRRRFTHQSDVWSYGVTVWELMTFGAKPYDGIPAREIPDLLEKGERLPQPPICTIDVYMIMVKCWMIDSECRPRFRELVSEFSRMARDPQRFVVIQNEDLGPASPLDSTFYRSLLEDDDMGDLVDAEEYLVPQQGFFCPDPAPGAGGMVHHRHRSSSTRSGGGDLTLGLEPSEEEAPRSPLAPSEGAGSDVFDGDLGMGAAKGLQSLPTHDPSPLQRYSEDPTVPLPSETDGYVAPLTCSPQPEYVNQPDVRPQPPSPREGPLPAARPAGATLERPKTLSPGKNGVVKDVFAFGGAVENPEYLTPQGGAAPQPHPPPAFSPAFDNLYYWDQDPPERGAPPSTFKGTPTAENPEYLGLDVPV
T4 sequence (P35968 834-1162 limits assumed): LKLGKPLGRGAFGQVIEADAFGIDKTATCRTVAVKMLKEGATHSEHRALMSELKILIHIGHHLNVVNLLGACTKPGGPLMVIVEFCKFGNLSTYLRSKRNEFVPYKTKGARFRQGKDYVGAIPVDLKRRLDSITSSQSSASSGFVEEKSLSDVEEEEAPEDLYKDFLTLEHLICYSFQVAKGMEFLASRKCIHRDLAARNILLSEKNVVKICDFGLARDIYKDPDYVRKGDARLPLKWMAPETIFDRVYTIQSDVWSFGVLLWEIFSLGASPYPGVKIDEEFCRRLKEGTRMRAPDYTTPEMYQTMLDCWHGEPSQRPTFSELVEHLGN

Row | Structure (SMILES) | IC50 (EGFR) | IC50 (Human GSK3b) | IC50 (ErbB-2) | IC50 [1]
1 | Nc1ncnc2nn3ccccc3c12 [Example 1, pyrido[1′,2′:1,5]pyrazolo[3,4-d]pyrimidin-4-amine] | > 10 µM | > 10 µM | > 10 µM | > 10 µM
2 | N#Cc1cccc(NC(=O)Nc2ncnc3nn4ccccc4c23)c1 [Example 8, N-(3-cyanophenyl)-N′-pyrido[1′,2′:1,5]pyrazolo[3,4-d]pyrimidin-4-ylurea] | > 10 µM | 0.1 to 1 µM | > 10 µM | 0.1 to 1 µM
3 | O=C(Nc1cccc(C(F)(F)F)c1)Nc1ncnc2nn3ccccc3c12 [Example 9, N-pyrido[1′,2′:1,5]pyrazolo[3,4-d]pyrimidin-4-yl-N′-[3-(trifluoromethyl)phenyl]urea] | > 10 µM | 0.1 to 1 µM | > 10 µM | 0.1 to 1 µM
4 | O=C(Nc1cccc([N+](=O)[O-])c1)Nc1ncnc2nn3ccccc3c12 [Example 10, N-(3-nitrophenyl)-N′-pyrido[1′,2′:1,5]pyrazolo[3,4-d]pyrimidin-4-ylurea] | > 10 µM | 0.1 to 1 µM | > 10 µM | > 10 µM
5 | O=C(Nc1ccc(Br)cc1)Nc1ncnc2nn3ccccc3c12 [Example 11, N-(4-bromophenyl)-N′-pyrido[1′,2′:1,5]pyrazolo[3,4-d]pyrimidin-4-ylurea] | > 10 µM | 1 to 10 µM | > 10 µM | 1 to 10 µM
6 | O=C(Nc1ccc(C(F)(F)F)cc1)Nc1ncnc2nn3ccccc3c12 [Example 12, N-pyrido[1′,2′:1,5]pyrazolo[3,4-d]pyrimidin-4-yl-N′-[4-(trifluoromethyl)phenyl]urea] | > 10 µM | 1 to 10 µM | > 10 µM | 1 to 10 µM
7 | O=C(Nc1ccc(F)cc1)Nc1ncnc2nn3ccccc3c12 [Example 13, N-(4-fluorophenyl)-N′-pyrido[1′,2′:1,5]pyrazolo[3,4-d]pyrimidin-4-ylurea] | > 10 µM | > 10 µM | > 10 µM | 0.1 to 1 µM

Continued, values first:

Row | IC50 (EGFR) | IC50 (Human GSK3b) | IC50 (ErbB-2) | IC50 [1] | Structure (SMILES)
8 | – | > 10 µM | – | > 10 µM | Fc1ccc(Nc2ncnc3nn4ccccc4c23)cc1Cl [Example 4, N-(3-chloro-4-fluorophenyl)pyrido[1′,2′:1,5]pyrazolo[3,4-d]pyrimidin-4-amine]
9 | – | > 10 µM | – | > 10 µM | Fc1cccc(COc2ccc(Nc3ncnc4nn5ccccc5c34)cc2Cl)c1 [Example 5, N-(3-chloro-4-{[(3-fluorophenyl)methyl]oxy}phenyl)-pyrido[1′,2′:1,5]pyrazolo[3,4-d]pyrimidin-4-amine]
10 | < 0.1 µM | > 10 µM | 0.1 to 1 µM | > 10 µM | Clc1cc(Nc2ncnc3nn4ccccc4c23)ccc1OCc1ccccc1 [Example 6, N-{3-chloro-4-[(phenylmethyl)oxy]phenyl}pyrido[1′,2′:1,5]pyrazolo[3,4-d]pyrimidin-4-amine]
11 | 1 to 10 µM | > 10 µM | 1 to 10 µM | > 10 µM | c1ccc(Cc2nc3ccc(Nc4ncnc5nn6ccccc6c45)cc3[nH]2)cc1 [Example 7, N-[2-(phenylmethyl)-1H-benzimidazol-5-yl]pyrido[1′,2′:1,5]pyrazolo-[3,4-d]pyrimidin-4-amine]
12 | 1 to 10 µM | 1 to 10 µM | > 10 µM | > 10 µM | C(=NNc1ncnc2nn3ccccc3c12)c1c[nH]c2ccccc12 [Example 14, 1H-indole-3-carbaldehyde pyrido[1′,2′:1,5]pyrazolo[3,4-d]pyrimidin-4-ylhydrazone]
